Measured values: ChEMBL document CHEMBL5465560, “Selectivity Literature for EUbOPEN Chemogenomic Library” (2024)
Values belong to the compound of their own block, whether it stands above or below them.

How the values were obtained:
[1] = target: Transient receptor potential cation channel subfamily M member 6 (Homo sapiens) (UniProt Q9BX84); experiment: Selectivity interaction (Ambit KINOMEscan and KiNATiv profiling in Jurkat cells) EUB0000090b TRPM6; type: cell-based; conditions: at 1 µM
[2] = target: Vascular endothelial growth factor receptor 2 (Homo sapiens, UniProt P35968); experiment: Selectivity interaction (KinomeScan (DiscoverX)) EUB0001079a KDR; conditions: at 1 µM
Chain of Vascular endothelial growth factor receptor 2 (P35968 whole entry): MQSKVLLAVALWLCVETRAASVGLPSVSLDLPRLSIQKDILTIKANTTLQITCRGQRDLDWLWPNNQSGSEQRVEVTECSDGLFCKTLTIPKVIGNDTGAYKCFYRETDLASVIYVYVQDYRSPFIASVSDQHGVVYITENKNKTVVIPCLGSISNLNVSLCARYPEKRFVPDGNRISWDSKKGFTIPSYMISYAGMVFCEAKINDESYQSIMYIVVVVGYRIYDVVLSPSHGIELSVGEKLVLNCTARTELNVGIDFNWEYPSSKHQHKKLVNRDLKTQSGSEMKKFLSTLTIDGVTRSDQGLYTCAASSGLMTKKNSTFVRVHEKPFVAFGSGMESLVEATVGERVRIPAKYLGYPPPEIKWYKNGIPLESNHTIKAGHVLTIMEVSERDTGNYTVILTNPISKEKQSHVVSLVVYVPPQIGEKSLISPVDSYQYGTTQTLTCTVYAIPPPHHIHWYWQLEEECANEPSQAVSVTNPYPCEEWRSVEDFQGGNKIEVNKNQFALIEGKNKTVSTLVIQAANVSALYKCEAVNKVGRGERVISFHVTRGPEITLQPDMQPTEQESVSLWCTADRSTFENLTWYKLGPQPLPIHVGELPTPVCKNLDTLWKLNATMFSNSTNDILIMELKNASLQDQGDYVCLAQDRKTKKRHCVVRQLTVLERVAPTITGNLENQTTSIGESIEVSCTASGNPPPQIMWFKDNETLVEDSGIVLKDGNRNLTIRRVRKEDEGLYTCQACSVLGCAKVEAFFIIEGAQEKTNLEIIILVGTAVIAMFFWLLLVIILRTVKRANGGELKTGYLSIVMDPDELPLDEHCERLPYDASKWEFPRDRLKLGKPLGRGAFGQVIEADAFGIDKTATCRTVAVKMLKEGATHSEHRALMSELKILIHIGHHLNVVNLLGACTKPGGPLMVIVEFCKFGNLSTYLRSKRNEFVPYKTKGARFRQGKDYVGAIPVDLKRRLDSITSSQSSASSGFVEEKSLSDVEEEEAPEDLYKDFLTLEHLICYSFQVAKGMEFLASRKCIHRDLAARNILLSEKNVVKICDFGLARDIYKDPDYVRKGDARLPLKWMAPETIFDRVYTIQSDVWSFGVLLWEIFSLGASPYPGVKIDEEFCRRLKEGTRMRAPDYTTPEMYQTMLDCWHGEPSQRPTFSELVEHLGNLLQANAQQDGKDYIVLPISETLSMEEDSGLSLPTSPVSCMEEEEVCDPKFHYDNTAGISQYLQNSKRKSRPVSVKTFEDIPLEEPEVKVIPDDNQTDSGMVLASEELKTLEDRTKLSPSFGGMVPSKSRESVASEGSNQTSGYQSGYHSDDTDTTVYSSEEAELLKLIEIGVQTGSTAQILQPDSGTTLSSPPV

[3] = target: Tyrosine-protein kinase Lyn (Homo sapiens, UniProt P07948); experiment: Selectivity interaction (Millipore kinase profiler) EUB0000124b LYN; conditions: at 10 µM
[4] = target: Ribosomal protein S6 kinase alpha-1 (Homo sapiens, UniProt Q15418); experiment: Selectivity interaction (KinomeScan (DiscoverX)) EUB0000618a RPS6KA1; conditions: at 10 µM
[5] = target: T1, Serine/threonine-protein kinase 3 (Homo sapiens) (UniProt Q13188); experiment: Selectivity interaction (ActivX KiNativ screen (ex vivo kinase selectivity in human PBMCs)) EUB0001619a STK3; type: cell-based; conditions: PBMC, at 1 µM
T1 sequence (whole entry): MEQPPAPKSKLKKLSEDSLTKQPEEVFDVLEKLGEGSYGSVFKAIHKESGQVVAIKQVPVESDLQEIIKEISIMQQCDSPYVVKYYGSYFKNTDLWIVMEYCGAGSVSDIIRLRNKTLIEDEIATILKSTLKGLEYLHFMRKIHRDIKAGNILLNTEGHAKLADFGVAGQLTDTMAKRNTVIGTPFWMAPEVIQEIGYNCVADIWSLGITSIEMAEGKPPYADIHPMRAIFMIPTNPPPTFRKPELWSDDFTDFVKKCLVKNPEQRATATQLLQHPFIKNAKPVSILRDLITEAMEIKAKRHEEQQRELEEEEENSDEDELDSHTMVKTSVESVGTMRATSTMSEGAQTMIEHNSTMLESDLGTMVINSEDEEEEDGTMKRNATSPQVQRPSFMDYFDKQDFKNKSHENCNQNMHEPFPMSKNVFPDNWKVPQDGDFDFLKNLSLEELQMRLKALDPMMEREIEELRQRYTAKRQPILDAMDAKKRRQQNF

[6] = target: Calcium/calmodulin-dependent protein kinase type II subunit delta (Homo sapiens) (UniProt Q13557); experiment: Selectivity interaction (KinomeScan (DiscoverX)) EUB0000045b CAMK2D
Chain of Calcium/calmodulin-dependent protein kinase type II subunit delta (Homo sapiens) (Q13557 whole entry): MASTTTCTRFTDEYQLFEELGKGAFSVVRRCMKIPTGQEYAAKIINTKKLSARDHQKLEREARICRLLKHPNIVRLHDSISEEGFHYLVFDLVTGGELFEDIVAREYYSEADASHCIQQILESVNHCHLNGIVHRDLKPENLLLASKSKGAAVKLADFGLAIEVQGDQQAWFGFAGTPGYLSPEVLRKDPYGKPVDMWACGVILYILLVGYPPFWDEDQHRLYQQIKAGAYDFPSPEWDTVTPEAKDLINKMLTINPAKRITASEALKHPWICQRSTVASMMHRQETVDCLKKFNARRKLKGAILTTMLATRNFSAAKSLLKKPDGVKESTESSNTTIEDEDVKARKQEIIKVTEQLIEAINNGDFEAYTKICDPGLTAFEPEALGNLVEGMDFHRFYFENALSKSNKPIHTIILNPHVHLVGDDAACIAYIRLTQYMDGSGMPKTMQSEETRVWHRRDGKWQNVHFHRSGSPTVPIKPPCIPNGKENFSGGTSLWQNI

[7] = target: Serine/threonine-protein kinase 32B (Homo sapiens) (UniProt Q9NY57); experiment: Selectivity interaction (KinomeScan (DiscoverX)) EUB0000595a STK32B; conditions: at 10 µM
Chain of Serine/threonine-protein kinase 32B (Homo sapiens) (Q9NY57 whole entry): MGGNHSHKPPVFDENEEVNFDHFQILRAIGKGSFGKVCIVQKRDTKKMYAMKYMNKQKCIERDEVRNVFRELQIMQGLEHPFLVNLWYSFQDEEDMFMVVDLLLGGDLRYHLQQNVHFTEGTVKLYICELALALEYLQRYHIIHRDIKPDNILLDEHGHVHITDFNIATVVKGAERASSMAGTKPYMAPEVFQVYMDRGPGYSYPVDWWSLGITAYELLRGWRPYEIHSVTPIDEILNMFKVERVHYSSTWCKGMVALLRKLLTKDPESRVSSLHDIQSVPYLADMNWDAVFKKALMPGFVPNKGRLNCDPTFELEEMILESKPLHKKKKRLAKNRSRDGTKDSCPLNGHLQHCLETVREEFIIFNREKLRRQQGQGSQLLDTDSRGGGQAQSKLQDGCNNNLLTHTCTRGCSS

[8] = target: Serine/threonine-protein kinase 38 (Homo sapiens) (UniProt Q15208); experiment: Selectivity interaction (ActivX KiNativ screen (kinase selectivity in THP-1 cell lysates)) EUB0000639a STK38; type: subcellular; conditions: lysate
Chain of Serine/threonine-protein kinase 38 (Homo sapiens) (Q15208 2-465 limits assumed): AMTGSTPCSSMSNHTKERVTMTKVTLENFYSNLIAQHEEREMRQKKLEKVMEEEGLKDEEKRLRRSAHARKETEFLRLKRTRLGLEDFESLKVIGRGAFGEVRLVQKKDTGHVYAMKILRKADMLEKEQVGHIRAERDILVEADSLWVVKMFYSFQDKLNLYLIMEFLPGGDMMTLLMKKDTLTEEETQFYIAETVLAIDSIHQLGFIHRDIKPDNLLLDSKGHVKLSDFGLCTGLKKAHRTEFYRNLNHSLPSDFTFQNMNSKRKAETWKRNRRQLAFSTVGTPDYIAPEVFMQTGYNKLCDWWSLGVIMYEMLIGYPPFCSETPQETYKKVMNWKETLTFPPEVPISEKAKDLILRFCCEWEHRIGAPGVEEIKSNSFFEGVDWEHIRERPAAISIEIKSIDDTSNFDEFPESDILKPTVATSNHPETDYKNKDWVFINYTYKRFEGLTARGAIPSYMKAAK

[9] = target: Serine/threonine-protein kinase Nek4 (Homo sapiens) (UniProt P51957); experiment: Selectivity interaction (Kinase panel (Invitrogen)) EUB0000639a NEK4; conditions: at 200 nM
Chain of Serine/threonine-protein kinase Nek4 (Homo sapiens) (P51957 whole entry, looked up): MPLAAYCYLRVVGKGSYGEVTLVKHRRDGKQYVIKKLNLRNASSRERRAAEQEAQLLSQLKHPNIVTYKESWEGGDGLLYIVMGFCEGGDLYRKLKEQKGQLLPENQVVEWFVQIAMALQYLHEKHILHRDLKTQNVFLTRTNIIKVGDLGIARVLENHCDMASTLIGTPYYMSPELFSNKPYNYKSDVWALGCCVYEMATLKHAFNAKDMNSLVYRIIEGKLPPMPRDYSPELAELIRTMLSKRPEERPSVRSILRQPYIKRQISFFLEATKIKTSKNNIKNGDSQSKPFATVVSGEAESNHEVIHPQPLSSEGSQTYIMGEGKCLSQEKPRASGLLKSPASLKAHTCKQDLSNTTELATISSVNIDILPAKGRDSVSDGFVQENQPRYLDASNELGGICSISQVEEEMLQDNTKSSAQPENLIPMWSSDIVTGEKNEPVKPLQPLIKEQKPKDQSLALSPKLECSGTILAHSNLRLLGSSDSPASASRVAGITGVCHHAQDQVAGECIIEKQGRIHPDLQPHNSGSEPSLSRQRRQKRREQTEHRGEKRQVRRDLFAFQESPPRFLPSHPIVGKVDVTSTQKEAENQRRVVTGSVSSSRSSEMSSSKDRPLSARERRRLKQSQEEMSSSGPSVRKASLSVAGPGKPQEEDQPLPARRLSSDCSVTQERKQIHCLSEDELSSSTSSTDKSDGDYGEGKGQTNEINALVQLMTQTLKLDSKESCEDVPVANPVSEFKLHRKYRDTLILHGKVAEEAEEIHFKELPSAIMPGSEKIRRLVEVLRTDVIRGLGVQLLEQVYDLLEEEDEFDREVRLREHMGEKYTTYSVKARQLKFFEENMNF

[10] = target: T2, Beta-adrenergic receptor kinase 1 (Homo sapiens) (UniProt P25098); experiment: Selectivity interaction (ProQinase) EUB0000171b ADRBK1
T2 sequence (whole entry): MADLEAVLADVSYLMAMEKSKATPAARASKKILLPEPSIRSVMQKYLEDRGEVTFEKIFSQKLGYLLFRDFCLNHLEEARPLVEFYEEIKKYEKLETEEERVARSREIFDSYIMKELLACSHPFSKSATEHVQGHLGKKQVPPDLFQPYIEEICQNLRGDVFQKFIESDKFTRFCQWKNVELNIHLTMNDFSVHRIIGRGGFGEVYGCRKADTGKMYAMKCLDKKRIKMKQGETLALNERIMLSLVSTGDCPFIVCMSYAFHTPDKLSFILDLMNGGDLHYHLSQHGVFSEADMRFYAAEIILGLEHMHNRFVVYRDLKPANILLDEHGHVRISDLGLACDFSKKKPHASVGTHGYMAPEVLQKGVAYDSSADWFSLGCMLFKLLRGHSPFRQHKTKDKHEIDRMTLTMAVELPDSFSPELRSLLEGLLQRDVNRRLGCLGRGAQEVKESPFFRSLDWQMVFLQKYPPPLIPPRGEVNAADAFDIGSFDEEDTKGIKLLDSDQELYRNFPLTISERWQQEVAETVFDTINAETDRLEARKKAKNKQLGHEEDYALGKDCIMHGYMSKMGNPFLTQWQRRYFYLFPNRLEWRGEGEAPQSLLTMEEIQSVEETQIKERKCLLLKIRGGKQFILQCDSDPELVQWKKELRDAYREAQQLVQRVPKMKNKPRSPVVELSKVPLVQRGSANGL

[11] = target: Calcium/calmodulin-dependent protein kinase kinase 2 (Homo sapiens) (UniProt Q96RR4); experiment: Selectivity interaction (KinomeScan (DiscoverX)) EUB0001049a CAMKK2; conditions: at 1 µM
Chain of Calcium/calmodulin-dependent protein kinase kinase 2 (Homo sapiens) (Q96RR4 2-588 limits assumed): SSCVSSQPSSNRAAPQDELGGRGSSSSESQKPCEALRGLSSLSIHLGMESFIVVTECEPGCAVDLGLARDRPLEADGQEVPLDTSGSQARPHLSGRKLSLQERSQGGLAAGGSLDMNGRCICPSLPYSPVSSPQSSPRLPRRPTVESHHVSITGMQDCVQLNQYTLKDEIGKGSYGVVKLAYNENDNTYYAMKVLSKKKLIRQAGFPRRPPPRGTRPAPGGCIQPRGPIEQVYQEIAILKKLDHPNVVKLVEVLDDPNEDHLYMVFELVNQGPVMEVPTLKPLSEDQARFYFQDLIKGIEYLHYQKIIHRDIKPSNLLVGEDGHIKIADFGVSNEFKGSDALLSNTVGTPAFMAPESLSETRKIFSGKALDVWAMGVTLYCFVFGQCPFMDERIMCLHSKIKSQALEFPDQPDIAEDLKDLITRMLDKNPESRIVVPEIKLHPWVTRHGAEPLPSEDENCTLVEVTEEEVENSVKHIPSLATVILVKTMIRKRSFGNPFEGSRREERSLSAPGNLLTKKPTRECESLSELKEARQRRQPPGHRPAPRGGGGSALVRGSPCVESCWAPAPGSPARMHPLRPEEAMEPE

[12] = target: T3, Tyrosine-protein kinase ZAP-70 (Homo sapiens) (UniProt P43403); experiment: Selectivity interaction (KinomeScan (DiscoverX)) EUB0001049a ZAP70; conditions: at 1 µM
T3 sequence (whole entry): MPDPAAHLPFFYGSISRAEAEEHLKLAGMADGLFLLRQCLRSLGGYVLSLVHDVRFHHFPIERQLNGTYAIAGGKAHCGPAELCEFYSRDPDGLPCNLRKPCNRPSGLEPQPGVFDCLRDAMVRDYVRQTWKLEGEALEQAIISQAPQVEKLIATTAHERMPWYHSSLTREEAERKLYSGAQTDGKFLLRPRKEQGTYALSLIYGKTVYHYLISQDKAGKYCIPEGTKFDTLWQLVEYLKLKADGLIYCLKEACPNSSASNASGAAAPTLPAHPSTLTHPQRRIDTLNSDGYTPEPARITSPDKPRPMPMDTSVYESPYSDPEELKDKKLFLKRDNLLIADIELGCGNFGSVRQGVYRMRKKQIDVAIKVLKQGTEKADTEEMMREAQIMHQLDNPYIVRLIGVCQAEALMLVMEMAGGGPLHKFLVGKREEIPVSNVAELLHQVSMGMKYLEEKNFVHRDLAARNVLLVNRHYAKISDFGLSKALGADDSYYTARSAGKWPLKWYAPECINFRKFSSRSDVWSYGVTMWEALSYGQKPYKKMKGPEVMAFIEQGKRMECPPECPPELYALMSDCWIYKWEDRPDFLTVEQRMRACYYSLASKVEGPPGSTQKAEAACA

[13] = target: T3, Tyrosine-protein kinase ZAP-70 (Homo sapiens); experiment: Selectivity interaction (KinomeScan (DiscoverX)) EUB0000666a ZAP70; conditions: at 10 µM
[14] = target: Serine/threonine-protein kinase 33 (Homo sapiens) (UniProt Q9BYT3); experiment: Selectivity interaction (KinomeScan (DiscoverX)) EUB0000092b STK33; conditions: at 10 µM
Chain of Serine/threonine-protein kinase 33 (Homo sapiens) (Q9BYT3 whole entry, looked up): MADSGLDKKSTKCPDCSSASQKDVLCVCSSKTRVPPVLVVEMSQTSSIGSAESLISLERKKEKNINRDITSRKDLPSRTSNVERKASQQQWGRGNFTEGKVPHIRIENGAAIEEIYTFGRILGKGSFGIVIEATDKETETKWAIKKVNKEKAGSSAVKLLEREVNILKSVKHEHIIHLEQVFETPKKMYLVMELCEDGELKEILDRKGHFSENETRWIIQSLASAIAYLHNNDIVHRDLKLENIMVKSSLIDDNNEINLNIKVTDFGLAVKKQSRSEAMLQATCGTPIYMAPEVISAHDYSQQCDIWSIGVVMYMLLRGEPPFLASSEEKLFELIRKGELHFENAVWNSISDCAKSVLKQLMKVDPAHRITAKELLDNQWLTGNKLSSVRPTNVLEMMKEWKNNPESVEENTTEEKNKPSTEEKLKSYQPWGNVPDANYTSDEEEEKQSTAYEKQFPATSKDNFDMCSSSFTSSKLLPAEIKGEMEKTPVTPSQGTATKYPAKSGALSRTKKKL

[15] = target: Serine/threonine-protein kinase VRK2 (Homo sapiens) (UniProt Q86Y07); experiment: Selectivity interaction (LanthaScreen Eu Kinase Binding Assay) EUB0001632a VRK2; conditions: at 10 µM

SMILES: CN(C)C/C=C/C(=O)Nc1ccc(C(=O)N2CCCC(Nc3ncc(Cl)c(-c4c[nH]c5ccccc45)n3)C2)cc1 (stereo unspecified)
% of control [1]: 88%

SMILES: Nc1cnc(N2CCc3cc(S(=O)(=O)Nc4c(F)cc(Cl)cc4F)cc(N4CCCC4=O)c32)nc1 [TP-020n]
% of control [2]: 81%

% of control [3]: 95%
SMILES: CC(=O)Nc1cccc(-n2c(=O)n(C3CC3)c(=O)c3c(Nc4ccc(I)cc4F)n(C)c(=O)c(C)c32)c1

SMILES: O[C@H]1CC[C@H](Nc2ncc3nc(Nc4c(F)cc(F)cc4F)n([C@H]4CCOC4)c3n2)CC1
% of control [4]: 70%

SMILES: N#Cc1cccc(-c2c[nH]c3ncnc(N4CCOCC4)c23)c1
% of inhibition [5]: 74%

SMILES: C=CC(=O)Nc1cc(-n2c(=O)ccc3cnc4ccc(-c5ccc(NS(C)(=O)=O)cc5)cc4c32)ccc1C
% of control ([6]; at 1 µM): 100%
% of control ([6]; at 10 µM): 92%

SMILES: COCC(=O)NC/C=C/c1ccc2ncnc(Nc3ccc(Oc4ccc(C)nc4)c(C)c3)c2c1 [CP-724714]
% of control [7]: 92%

% of inhibition ([8]; at 0.01 µM): -3.8%
% of inhibition ([8]; at 0.04 µM): 5.4%
% of inhibition ([8]; at 0.2 µM): 31.8%
% of inhibition ([8]; at 1 µM): 70.6%
% of inhibition ([8]; at 5 µM): 90%
% of inhibition [9]: 3.25%
SMILES: CC[C@@H]1[C@H](F)C(=O)N[C@@H]1COc1nccc2cc(C(N)=O)c(OC)cc12 [ZIMLOVISERTIB]

% of control ([10]; at 1 µM): 101%
% of control ([10]; at 5 µM): 88%
SMILES: C=CC(=O)Nc1cccc(C(=O)Nc2ccc(Nc3cc(-c4[nH]c(SC)nc4C)ccn3)cc2)c1

SMILES: COc1cc(Nc2nc(C)cc(-c3cnn4nc(OC)ccc34)n2)cc(C(F)(F)F)c1
% of control [11]: 100%
% of control [12]: 95%

SMILES: O=C(NOC[C@H](O)CO)c1ccc(F)c(F)c1Nc1ccc(I)cc1F
% of control [13]: 89%

SMILES: CCC(=O)N1CCN(c2ccc(-n3c(=O)ccc4cnc5ccc(-c6cnc7ccccc7c6)cc5c43)cc2C(F)(F)F)CC1
% of control [14]: 90%

% of inhibition [15]: -14%
SMILES: Cn1cc(-n2cnc3c(NCc4nc5cc(Cl)c(Cl)cc5[nH]4)nc(N4CCOCC4)nc32)cn1
